The values that follow come from patent US7192924B2, “Corticotropin releasing factor 2 receptor agonists” (priority 2002, dated 2007).

One assay deals with T1, CRF1R (Homo sapiens, UniProt P34998).
T1 sequence (P34998 24-415): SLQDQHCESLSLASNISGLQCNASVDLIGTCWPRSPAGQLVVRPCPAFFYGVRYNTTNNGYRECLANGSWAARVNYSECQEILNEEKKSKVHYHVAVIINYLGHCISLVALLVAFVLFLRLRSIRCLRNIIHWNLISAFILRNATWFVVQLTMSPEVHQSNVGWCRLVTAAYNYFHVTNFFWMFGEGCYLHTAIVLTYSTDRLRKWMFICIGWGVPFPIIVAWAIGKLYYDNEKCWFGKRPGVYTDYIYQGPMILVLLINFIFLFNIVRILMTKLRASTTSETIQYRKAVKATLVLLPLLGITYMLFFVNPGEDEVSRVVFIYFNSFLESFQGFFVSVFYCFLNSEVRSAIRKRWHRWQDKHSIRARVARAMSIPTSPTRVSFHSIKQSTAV
As to the kind of experiment: CRF1R agonist activity (EC50, Emax), called comparative CRF binding. The settings on record: read-out: CRF1R EC50. It is filed as cell-based. In short, it runs like this:
(§1)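 Single-subtype CRFR cells, peptide vs vehicle, cAMP via CRE-reporter or lysate assay; background from other CRFR type subtracted if present.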

In the next assay the target is T2, CRF2R (Homo sapiens, UniProt Q13324).
T2 sequence (Q13324 1-411): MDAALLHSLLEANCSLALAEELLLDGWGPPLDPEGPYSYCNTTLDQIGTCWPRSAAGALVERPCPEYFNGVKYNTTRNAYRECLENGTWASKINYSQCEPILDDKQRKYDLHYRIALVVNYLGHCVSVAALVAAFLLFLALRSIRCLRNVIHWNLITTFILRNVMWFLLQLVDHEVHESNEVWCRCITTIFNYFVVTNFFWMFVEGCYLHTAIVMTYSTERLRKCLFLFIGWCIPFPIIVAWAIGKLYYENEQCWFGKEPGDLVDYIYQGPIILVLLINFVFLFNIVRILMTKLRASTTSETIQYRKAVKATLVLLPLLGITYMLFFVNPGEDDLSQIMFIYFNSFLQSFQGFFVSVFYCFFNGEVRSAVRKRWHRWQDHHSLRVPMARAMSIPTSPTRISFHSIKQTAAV
The assay can be described thus: CRF2R agonist activity (EC50, Emax), called comparative CRF binding. It is filed as cell-based. The following applies: read-out: CRF2R EC50. A digest of the protocol: as §1

Peptide text beside a SMILES is read from it. A value given as a limit tells only on which side of the number the result lay.

For the compound `CC[C@H](C)[C@H](N)C(=O)N[C@H](C(=O)N[C@@H](CC(C)C)C(=O)N[C@@H](CO)C(=O)N[C@@H](CC(C)C)C(=O)N[C@@H](CC(=O)O)C(=O)N[C@H](C(=O)N1CCC[C@H]1C(=O)N[C@H](C(=O)NCC(=O)N[C@@H](CC(C)C)C(=O)N[C@@H](CC(C)C)C(=O)N[C@@H](CCC(N)=O)C(=O)N[C@H](C(=O)N[C@@H](CC(C)C)C(=O)N[C@@H](CC(C)C)C(=O)N[C@@H](CCC(=O)O)C(=O)N[C@@H](CCC(N)=O)C(=O)N[C@H](C(=O)N[C@@H](CCCCN)C(=O)N[C@@H](C)C(=O)N[C@@H](CC(=O)O)C(=O)N[C@@H](CCC(N)=O)C(=O)N[C@@H](CC(C)C)C(=O)N[C@@H](C)C(=O)N[C@@H](CCC(N)=O)C(=O)N[C@@H](CCC(N)=O)C(=O)N[C@@H](C)C(=O)N[C@@H](Cc1c[nH]cn1)C(=O)N[C@@H](CO)C(=O)N[C@@H](CC(N)=O)C(=O)N[C@@H](CCCNC(=N)N)C(=O)N[C@@H](CCCCN)C(=O)N[C@@H](CC(C)C)C(=O)N[C@@H](CC(C)C)C(=O)N[C@@H](CC(=O)O)C(=O)N[C@H](C(=O)N[C@@H](C)C(N)=O)[C@@H](C)CC)[C@@H](C)O)[C@@H](C)CC)[C@@H](C)CC)C(C)C)C(C)C` [compound 159] (H-IVLSLDVPIGLLQILLEQTKADQLAQQAHSNRKLLDIA-NH2; N-terminus assumed), the values for the concentration giving a half-maximal response (EC50) on CRF1R and at CRF2R were greater than 100 nM and 90.8 nM, respectively.
The like results for `CC[C@H](C)[C@H](NC(=O)[C@H](C)NC(=O)[C@H](CC(N)=O)NC(=O)[C@H](CCC(N)=O)NC(=O)[C@H](CCC(=O)O)NC(=O)[C@H](C)NC(=O)[C@H](CCCNC(=N)N)NC(=O)[C@H](CCC(=O)O)NC(=O)[C@H](CCCNC(=N)N)NC(=O)[C@H](CCC(N)=O)NC(=O)[C@H](CO)NC(=O)[C@H](CCC(N)=O)NC(=O)[C@@H](NC(=O)[C@H](CCCCN)NC(=O)[C@H](CCC(=O)O)NC(=O)[C@H](CC(C)C)NC(=O)[C@H](CCC(=O)O)NC(=O)[C@H](CC(C)C)NC(=O)[C@H](CC(C)C)NC(=O)[C@@H](NC(=O)[C@H](CCCNC(=N)N)NC(=O)[C@H](CC(C)C)NC(=O)[C@H](CC(C)C)NC(=O)[C@H](CC(C)C)NC(=O)[C@H](CC(C)C)NC(=O)[C@@H]1CCCN1C(=O)[C@H](CC(C)C)NC(=O)[C@H](CC(=O)O)NC(=O)[C@@H](NC(=O)[C@H](CO)NC(=O)[C@H](CC(C)C)NC(=O)[C@H](CO)NC(=O)[C@@H]1CCCN1C(=O)[C@H](CC(N)=O)NC(=O)[C@@H](N)CC(=O)O)[C@@H](C)CC)[C@@H](C)O)[C@@H](C)O)C(=O)N[C@H](C(=O)N[C@@H](Cc1ccccc1)C(=O)N[C@@H](C)C(=O)N[C@@H](CO)C(=O)N[C@H](C(N)=O)C(C)C)[C@@H](C)CC` [compound 347] (H-DNPSLSIDLPLLLLRTLLELEKTQSQRERAEQNAIIFASV-NH2) were, in that order, no less than 1000 nM and 22.4 nM.
The like results for `CC[C@H](C)[C@H](N)C(=O)N[C@H](C(=O)N[C@@H](CC(C)C)C(=O)N[C@@H](CO)C(=O)N[C@@H](CC(C)C)C(=O)N[C@@H](CC(=O)O)C(=O)N[C@H](C(=O)N1CCC[C@H]1C(=O)N[C@H](C(=O)NCC(=O)N[C@@H](CC(C)C)C(=O)N[C@@H](CC(C)C)C(=O)N[C@@H](CCC(N)=O)C(=O)N[C@H](C(=O)N[C@@H](CC(C)C)C(=O)N[C@@H](CC(C)C)C(=O)N[C@@H](CCC(=O)O)C(=O)N[C@@H](CCC(N)=O)C(=O)N[C@@H](CCC(=O)O)C(=O)N[C@@H](CCCCN)C(=O)N[C@@H](C)C(=O)N[C@@H](CCCNC(=N)N)C(=O)N[C@@H](C)C(=O)N[C@@H](C)C(=O)N[C@@H](CCCNC(=N)N)C(=O)N[C@@H](CCC(=O)O)C(=O)N[C@@H](CCC(N)=O)C(=O)N[C@@H](C)C(=O)N[C@H](C(=O)N[C@H](C(=O)N[C@@H](CC(N)=O)C(=O)N[C@@H](C)C(=O)N[C@@H](CCCNC(=N)N)C(=O)N[C@H](C(=O)N[C@@H](CC(C)C)C(=O)N[C@@H](C)C(=O)N[C@@H](CCCNC(=N)N)C(=O)N[C@H](C(N)=O)C(C)C)[C@@H](C)CC)[C@@H](C)O)[C@@H](C)O)[C@@H](C)CC)[C@@H](C)CC)C(C)C)C(C)C` [compound 121] (H-IVLSLDVPIGLLQILLEQEKARAAREQATTNARILARV-NH2) were, in that order, greater than 100 nM and 5.67 nM.
In the same order, the values of `CC[C@H](C)[C@H](NC(=O)[C@H](CCCNC(=N)N)NC(=O)[C@H](C)NC(=O)[C@H](CC(N)=O)NC(=O)[C@H](CCC(N)=O)NC(=O)[C@H](CCC(=O)O)NC(=O)[C@H](C)NC(=O)[C@H](CCCNC(=N)N)NC(=O)[C@H](CCC(=O)O)NC(=O)[C@H](CCCNC(=N)N)NC(=O)[C@H](CCC(N)=O)NC(=O)[C@H](CO)NC(=O)[C@H](CCC(N)=O)NC(=O)[C@@H](NC(=O)[C@H](CCCCN)NC(=O)[C@H](CCC(=O)O)NC(=O)[C@H](CC(C)C)NC(=O)[C@H](CCC(=O)O)NC(=O)[C@H](CC(C)C)NC(=O)[C@H](CC(C)C)NC(=O)[C@@H](NC(=O)[C@H](CCCNC(=N)N)NC(=O)[C@H](CC(C)C)NC(=O)[C@H](CC(C)C)NC(=O)[C@H](Cc1ccccc1)NC(=O)[C@H](CC(C)C)NC(=O)[C@@H]1CCCN1C(=O)[C@H](CC(C)C)NC(=O)[C@H](CC(=O)O)NC(=O)[C@@H](NC(=O)[C@H](CO)NC(=O)[C@H](CC(C)C)NC(=O)[C@H](CO)NC(=O)[C@@H]1CCCN1C(=O)[C@H](CC(N)=O)NC(=O)[C@@H](N)CC(=O)O)[C@@H](C)CC)[C@@H](C)O)[C@@H](C)O)C(=O)N[C@@H](Cc1ccccc1)C(=O)N[C@@H](CC(=O)O)C(=O)N[C@@H](CCCNC(=N)N)C(=O)N[C@H](C(N)=O)C(C)C` [compound 336] (H-DNPSLSIDLPLFLLRTLLELEKTQSQRERAEQNARIFDRV-NH2; N-terminus assumed) are no less than 1000 nM and 17.8 nM.
On to `CC[C@H](C)[C@H](N)C(=O)N[C@H](C(=O)N[C@@H](CC(C)C)C(=O)N[C@@H](CO)C(=O)N[C@@H](CC(C)C)C(=O)N[C@@H](CC(=O)O)C(=O)N[C@H](C(=O)N1CCC[C@H]1C(=O)N[C@H](C(=O)NCC(=O)N[C@@H](CC(C)C)C(=O)N[C@@H](CC(C)C)C(=O)N[C@@H](CCC(N)=O)C(=O)N[C@H](C(=O)N[C@@H](CC(C)C)C(=O)N[C@@H](CC(C)C)C(=O)N[C@@H](CCC(=O)O)C(=O)N[C@@H](CCC(N)=O)C(=O)N[C@@H](CCC(=O)O)C(=O)N[C@@H](CCCNC(=N)N)C(=O)N[C@@H](CCC(N)=O)C(=O)N[C@@H](CCC(=O)O)C(=O)N[C@@H](C)C(=O)N[C@@H](C)C(=O)N[C@@H](CCCNC(=N)N)C(=O)N[C@@H](CCC(=O)O)C(=O)N[C@@H](CCC(N)=O)C(=O)N[C@@H](C)C(=O)N[C@H](C(=O)N[C@H](C(=O)N[C@@H](CC(N)=O)C(=O)N[C@@H](C)C(=O)N[C@@H](CCCNC(=N)N)C(=O)N[C@H](C(=O)N[C@@H](CC(C)C)C(=O)N[C@@H](C)C(=O)N[C@@H](CCCNC(=N)N)C(=O)N[C@H](C(N)=O)C(C)C)[C@@H](C)CC)[C@@H](C)O)[C@@H](C)O)[C@@H](C)CC)[C@@H](C)CC)C(C)C)C(C)C` [compound 118] (H-IVLSLDVPIGLLQILLEQERQEAAREQATTNARILARV-NH2; N-terminus assumed), for which the EC50 at CRF1R is greater than 100 nM; at CRF2R, 14.6 nM.
